Molecular target: PL^pro (Severe acute respiratory syndrome coronavirus 2, UniProt P0DTD1)
Experiment: FRET peptide cleavage assay
Type: biochemical

Going from `COc1ccc2nc3cc(Cl)ccc3c(Nc3ccc(O)cc3)c2c1` [compound 2, 4-[(6-chloro-2-methoxyacridin-9-yl)amino]phenol] to `COc1ccc2nc3cc(Cl)ccc3c(Nc3ccc(O)c(CN4CCCC4)c3)c2c1` [compound 4, 4-[(6-chloro-2-methoxyacridin-9-yl)amino]-2-(pyrrolidin-1-ylmethyl)phenol], the IC50 falls from greater than 20 µM to 2.56 ± 0.28 µM. The second is the more potent here.

`COc1ccc2nc3cc(Cl)ccc3c(Nc3cc(CN(C)C)c(O)c(CN(C)C)c3)c2c1` [compound 3, 4-[(6-chloro-2-methoxyacridin-9-yl)amino]-2,6-bis[(dimethylamino)methyl]phenol] and `COc1ccc2nc3cc(Cl)ccc3c(Nc3cc(CN4CCCC4)c(O)c(CN4CCCC4)c3)c2c1` [compound 5, 4-[(6-chloro-2-methoxyacridin-9-yl)amino]-2,6-bis(pyrrolidin-1-ylmethyl)phenol] are within error of each other in IC50: 3.28 ± 0.4 µM for the first, 2.44 ± 0.53 µM for the second.

`COc1ccc2nc3cc(Cl)ccc3c(O)c2c1` [compound 6, 6-chloro-2-methoxyacridin-9-ol] and `COc1ccc2nc3cc(Cl)ccc3c(N3CCOCC3)c2c1` [compound 7, 6-chloro-2-methoxy-9-morpholin-4-ylacridine] cannot be ordered by IC50: greater than 20 µM for the first, greater than 20 µM for the second.

`N#Cc1c(N2CCOCC2)ncc2cc3ccccc3nc12` [compound 9, 3-morpholin-4-ylbenzo[b]-1,6-naphthyridine-4-carbonitrile] and `N#Cc1c(N2CCOCC2)ncc2c(=O)c3ccccc3[nH]c12` [compound 10, 3-morpholin-4-yl-10-oxo-5,10-dihydrobenzo[b]-1,6-naphthyridine-4-carbonitrile] cannot be ordered by IC50: greater than 20 µM for the first, greater than 20 µM for the second.
